Assays:
A2B receptor = target: T1, A2B receptor (Homo sapiens, UniProt P29275); test: A2bR antagonism IC50, cAMP TR-FRET in HEK-293 cells, high concentration of adenosine (30 μM); conditions: A2BR IC50 (nM) (@30 μM Adenosine), HEK-293 cells expressing A2B receptor; agonist adenosine 30 μM; 2% HSA; inhibition of cAMP;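 further: compounds preincubated 10 min with cells, then adenosine stimulation 30 min at room temperature in buffer with Rolipram 100 µM and EHNA 30 µM, TR-FRET read after 1 h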
T1 sequence (P29275 1-332): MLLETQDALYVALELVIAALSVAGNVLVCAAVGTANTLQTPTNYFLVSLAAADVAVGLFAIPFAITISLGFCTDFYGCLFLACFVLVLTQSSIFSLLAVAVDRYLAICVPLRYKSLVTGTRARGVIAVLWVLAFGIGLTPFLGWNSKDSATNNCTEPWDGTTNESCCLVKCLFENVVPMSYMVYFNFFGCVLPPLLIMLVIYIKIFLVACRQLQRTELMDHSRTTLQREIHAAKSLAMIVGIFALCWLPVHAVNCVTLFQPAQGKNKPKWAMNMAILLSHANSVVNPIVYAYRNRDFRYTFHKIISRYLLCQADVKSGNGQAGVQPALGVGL
Method: A Time-Resolved Fluorescence Energy Transfer (TR-FRET) assay was used to show the inhibition of this cAMP production in HEK cells upon treatment with compounds of the Formula I of the present disclosure.
HEK-293 cells expressing A2A receptor (#ES-011-C) or A2B receptor (#ES 013-C) were obtained from PerkinElmer. Cells were maintained in DMEM medium supplemented with 10% FBS and 200 μg/mL of G418 at 37° C. and 5% CO2. The cells were cultured in antibiotic free medium for a period of 16-20 hours prior to the assay. All subsequent steps of the assay are performed at room temperature (22-24° C.). […] About 1500 cells per well were pre-incubated for 10 minutes with the compounds of the present invention before adding the agonist Adenosine at a high concentration (30 μM) for a total stimulation time of 30 minutes. […] The assays were conducted in a stimulation buffer containing 1×DMEM, 5 mM HEPES, 2% Human serum albumin (HSA), 100 μM Rolipram and 30 μM erythro-9-(2-hydroxy-3-nonyl) adenine (EHNA). Serial dilutions of compounds were made in stimulation buffer to achieve a final concentration of high micromolar in a reaction volume of 10 μL. The total reaction volume was 10 μL (5 μL of cells, 2.5 μL of antagonist and 2.5 μL of agonist). […] The stimulation was ended, and the reaction completed by adding 5 μL of 4× Eu-cAMP tracer working solution and 5 μL of 4× ULight-anti-cAMP working solution. The TR FRET signal was measured after 1-hour incubation using a Tecan M1000 or a PerkinElmer Victor Nivo plate reader.

A2A receptor = target: T2, A2A receptor (Homo sapiens, UniProt P29274); test: A2aR antagonism IC50, cAMP TR-FRET in HEK-293 cells, high concentration of adenosine (30 μM); format: cell-based; conditions: HEK-293 cells expressing A2A receptor; agonist adenosine 30 μM; 2% HSA; inhibition of cAMP; read-out: A2AR IC50 (nM) (@30 μM Adenosine);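 further: compounds added 10 min before adenosine, then 30 min stimulation at room temperature in buffer with 100 µM rolipram and 30 µM EHNA, signal read 1 h after detection reagents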
T2 construct: host or cells: HEK-293
T2 sequence (P29274 whole entry): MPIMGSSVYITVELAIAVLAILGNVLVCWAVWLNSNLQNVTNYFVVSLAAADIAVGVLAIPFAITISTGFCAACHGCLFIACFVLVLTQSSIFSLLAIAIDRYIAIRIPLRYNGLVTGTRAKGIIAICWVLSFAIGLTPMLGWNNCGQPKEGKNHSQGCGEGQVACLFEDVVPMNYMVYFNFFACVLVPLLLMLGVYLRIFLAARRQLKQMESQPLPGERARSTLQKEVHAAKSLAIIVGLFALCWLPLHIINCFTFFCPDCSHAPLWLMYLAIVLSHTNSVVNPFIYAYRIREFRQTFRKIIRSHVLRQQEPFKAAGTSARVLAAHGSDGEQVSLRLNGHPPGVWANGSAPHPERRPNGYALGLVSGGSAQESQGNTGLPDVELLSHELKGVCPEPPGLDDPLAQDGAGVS

| SMILES | IC50 (A2B receptor) | IC50 (A2A receptor) |
| --- | --- | --- |
| CCc1c(C)nn2c(N)c(C#N)c(NCCc3cccc(OCCO)n3)nc12 [Example 150, 7-amino-3-ethyl-5-((2-(6-(2-hydroxyethoxy)pyridin-2-yl)ethyl)amino)-2-methylpyrazolo[1,5-a] pyrimidine-6-carbonitrile] | 1630 nM | 1150 nM |
| Cc1nn2c(N)c(C#N)c(NCCc3ccn(CC4CC(O)C4)n3)nc2c1Cl (single isomer, unassigned; (-)) [Example 84, (−)-7-amino-3-chloro-5-((2-(1-((3-hydroxycyclobutyl)methyl)-1H-pyrazol-3-yl)ethyl)amino)-2-methylpyrazolo[1,5-a]pyrimidine-6-carbonitrile] | 4250 nM | 102 nM |
| CCCc1c(C)nn2c(N)c(C#N)c(NCCc3ccn(C4CCC4CO)n3)nc12 (single isomer, unassigned; (+)) [Example 165a, (+)-7-amino-5-((2-(1-(2-(hydroxymethyl)cyclobutyl)-1H-pyrazol-3-yl)ethyl)amino)-2-methyl-3-propylpyrazolo[1,5-a]pyrimidine-6-carbonitrile] | > 15000 nM | 2160 nM |
| Cc1nn2c(N)c(C#N)c(NCCc3cccn(CCCO)c3=O)nc2c1C [Example 138, 7-amino-5-((2-(1-(3-hydroxypropyl)-2-oxo-1,2-dihydropyridin-3-yl)ethyl)amino)-2,3-dimethylpyrazolo[1,5-a] pyrimidine-6-carbonitrile] | 2050 nM | 88 nM |
| CCc1c(C)nn2c(N)c(C#N)c(NCCc3cccn(CCCO)c3=O)nc12 [Example 113, 7-amino-3-ethyl-5-((2-(1-(3-hydroxypropyl)-2-oxo-1,2-dihydropyridin-3-yl)ethyl)amino)-2-methylpyrazolo[1,5-a]pyrimidine-6-carbonitrile] | 1050 nM | 187 nM |
| CCCc1c(C)nn2c(N)c(C#N)c(NCCc3cccc(CO)n3)nc12 [Example 157, 7-amino-5-((2-(6-(hydroxymethyl)397yridine-2-yl)ethyl)amino)-2-methyl-3-propylpyrazolo[1,5-a]pyrimidine-6-carbonitrile] | 2930 nM | 1670 nM |
| CCCc1c(C)nn2c(N)c(C#N)c(NCCc3cccn(CCCO)c3=O)nc12 [Example 156, 7-amino-5-((2-(1-(3-hydroxypropyl)-2-oxo-1,2-dihydropyridin-3-yl)ethyl)amino)-2-methyl-3-propylpyrazolo[1,5-a]pyrimidine-6-carbonitrile] | 2950 nM | 750 nM |
| CCc1c(C(F)F)nn2c(N)c(C#N)c(NCCc3cccn(CCO)c3=O)nc12 [Example 131, 7-amino-2-(difluoromethyl)-3-ethyl-5-((2-(1-(2-hydroxyethyl)-2-oxo-1,2-dihydropyridin-3-yl)ethyl)amino) pyrazolo[1,5-a]pyrimidine-6-carbonitrile] | > 15000 nM | 1460 nM |
| CCc1c(C)nn2c(N)c(C#N)c(NCCc3cc(C)n(C4COCC4CO)n3)nc12 (single isomer, unassigned) [Example 167] | 700 nM | 100 nM |
| CCc1c(C)nn2c(N)c(C#N)c(NCCc3cccn(CCO)c3=O)nc12 [Example 108, 7-amino-3-ethyl-5-((2-(1-(2-hydroxyethyl)-2-oxo-1,2-dihydropyridin-3-yl)ethyl)amino)-2-methylpyrazolo[1,5-a]pyrimidine-6-carbonitrile] | 1070 nM | 392 nM |
| Cc1nn2c(N)c(C#N)c(NCCc3ccn(C4COCC4CO)n3)nc2c1Cl (stereo not drawn) [Example 127, 7-amino-3-chloro-5-((2-(1-(4-(hydroxymethyl)tetrahydrofuran-3-yl)-1H-pyrazol-3-yl)ethyl)amino)-2-methylpyrazolo[1,5-a] pyrimidine-6-carbonitrile] | 2170 nM | 161 nM |
| CCc1cnn2c(N)c(C#N)c(NCCc3ccn(C4(CO)CC4)n3)nc12 [Example 71, 7-amino-3-ethyl-5-((2-(1-(1-(hydroxymethyl)cyclopropyl)-1H-pyrazol-3-yl)ethyl)amino) pyrazolo[1,5-a] pyrimidine-6-carbonitrile] | 2820 nM | 158 nM |

— patent publication US12577247B2 (BUGWORKS RESEARCH, INC., priority 2021, dated 2026)
